Source: ChEMBL document CHEMBL1255477, “In vitro properties of BAL30072, a novel siderophore sulfactam with activity against multiresistant gram-negative bacilli” (Antimicrob Agents Chemother, 2010)
Values after ≈ are worked out from the molar mass of the structure shown. Active and inactive are the calls of the source. The calls are words filed in the database; no cut-off is given here.

Experiments:
[1] = Inhibition of Escherichia coli Penicillin-binding protein 1A
[2] = Inhibition of Escherichia coli Penicillin-binding protein 2
[3] = Inhibition of Escherichia coli Penicillin-binding protein 3
Pseudomonas aeruginosa [4] = assay: Microbicidal activity against Pseudomonas aeruginosa (560546)9 M.P. selected after 4 times MIC compound exposure; format: functional
Acinetobacter baumannii [5] = assay: Antimicrobial activity against Acinetobacter baumannii HPA74510 assessed as log reduction in colony count after 24 hrs; format: functional
Pseudomonas aeruginosa [6] = assay: Antimicrobial activity against Pseudomonas aeruginosa HPA10586 assessed as log reduction in colony count within 6 hrs selected after 1 to 16 times MIC compound exposure; format: functional, organism-based
Escherichia coli = assay: Antimicrobial activity against Escherichia coli W3110 assessed as appearance of short filaments at 4 ug/mL after 3 hrs by phase-contrast microscopy; format: functional, organism-based
Acinetobacter baumannii [7] = assay: Antimicrobial activity against Acinetobacter baumannii HPA74510 assessed as highest concentration at which colonies reappeared; format: functional
Pseudomonas aeruginosa [8] = assay: Antimicrobial activity against Pseudomonas aeruginosa 860 assessed as highest concentration at which colonies reappeared; format: functional
[9] = Inhibition of beta-lactamase SHV-4
[10] = Inhibition of beta-lactamase KPC-2
[11] = Inhibition of Beta-lactamase IMP1
[12] = Inhibition of beta-lactamase VIM-1
[13] = Inhibition of Pseudomonas aeruginosa 18S/H beta-lactamase class C
Pseudomonas aeruginosa [14] = assay: Antimicrobial activity against Pseudomonas aeruginosa BA(C1-106) mutant assessed as doubling time; format: functional
Acinetobacter baumannii [15] = assay: Antimicrobial activity against Acinetobacter baumannii HPA74510 selected after 4 times MIC compound exposure; format: functional
Pseudomonas aeruginosa [16] = assay: Microbicidal activity against Pseudomonas aeruginosa 527 selected after 8 times MIC compound exposure; format: functional
Acinetobacter baumannii [17] = assay: Antimicrobial activity against Acinetobacter baumannii HPA74510 by broth dilution method; format: functional
Enterobacter cloacae = assay: Antimicrobial activity against Enterobacter cloacae S9369 by broth dilution method; format: functional
Klebsiella pneumoniae = assay: Antimicrobial activity against Klebsiella pneumoniae 1338665 by broth dilution method; format: functional
Pseudomonas aeruginosa [18] = assay: Antimicrobial activity against Pseudomonas aeruginosa 621 by broth dilution method; format: functional

## CC1(C)[C@H](NC(=O)/C(=N\OCc2cc(=O)c(O)cn2O)c2csc(N)n2)C(=O)N1OS(=O)(=O)O (stereo in doubt)
[1]
  IC50: 3.9 µM
[2]
  IC50: 30 µM
[3]
  IC50: 0.048 µM
Pseudomonas aeruginosa [4]
  MBC: 4 µg/mL (≈ 7.71 µM)
Acinetobacter baumannii [5]
  FC: 3
Pseudomonas aeruginosa [6]
  Activity: Active
Escherichia coli
  Activity: Active
Acinetobacter baumannii [7]
  Activity: 4 mg/L
Pseudomonas aeruginosa [8]
  Activity: 32 mg/L
[9]
  IC50: 4.3 µM
[10]
  IC50: > 2500 µM
[11]
  IC50: > 2500 µM
[12]
  IC50: > 500 µM
[13]
  IC50: 28 µM

## C[C@@H](O)[C@H]1C(=O)N2C(C(=O)O)=C(S[C@@H]3CN[C@H](C(=O)N(C)C)C3)[C@H](C)[C@H]12 [MEROPENEM]
Pseudomonas aeruginosa [14]
  Time: 3.8 h
Acinetobacter baumannii [15]
  MIC: > 128 µg/mL
Pseudomonas aeruginosa [16]
  MBC: 32 µg/mL (≈ 83.4 µM)
Acinetobacter baumannii [17]
  MIC: 1 µg/mL (≈ 2.61 µM)
Enterobacter cloacae
  MIC: 4 µg/mL (≈ 10.4 µM)
Klebsiella pneumoniae
  MIC: 4 µg/mL (≈ 10.4 µM)
Pseudomonas aeruginosa [18]
  MIC: 0.125 µg/mL (≈ 0.326 µM)
